Here are results for 17 molecules from US9045491B2, “Thienyl [3,2-D] pyrimidin-4-one compounds, preparation method, pharmaceutical compositions and use thereof” (SHANGHAI INSTITUTE OF MATERIA MEDICA, CHINESE ACADEMY OF …, priority 2011, dated 2015).

The target in one test is T1, DPP IV (Mus musculus, UniProt P28843).
T1 construct: from tissue; host or cells: plasma of ICR mouse
As to the kind of experiment: DPP IV inhibitory activity in vivo: DPP IV activity in plasma of ICR mouse after single oral dose. As to conditions: oral 3 mg/kg, compared with Alogliptin and Vildagliptin (LAF237), FIG. 1-6. Here is the method:
Animals: ICR mouse (8-10 weeks old; sex: male; 25 g-30 g of body weight, purchased from Shanghai SLAC Laboratory Animal Center).
Meanwhile the solvent group was used as blank control. The blood was taken from orbital venous plexus of the mouse before administration, and 30, 60, 2 h, 4 h, 6 h, 8 h and […] after administration, respectively and loaded into Eppendorf tube (Qizhong Industrial (Shanghai) co., Ltd.) treated by anticoagulant. The plasma was obtained by centrifugation and DPP IV activity was determined.

The target of another test is T2, FAP (Homo sapiens, UniProt Q12884).
T2 sequence (Q12884 1-760): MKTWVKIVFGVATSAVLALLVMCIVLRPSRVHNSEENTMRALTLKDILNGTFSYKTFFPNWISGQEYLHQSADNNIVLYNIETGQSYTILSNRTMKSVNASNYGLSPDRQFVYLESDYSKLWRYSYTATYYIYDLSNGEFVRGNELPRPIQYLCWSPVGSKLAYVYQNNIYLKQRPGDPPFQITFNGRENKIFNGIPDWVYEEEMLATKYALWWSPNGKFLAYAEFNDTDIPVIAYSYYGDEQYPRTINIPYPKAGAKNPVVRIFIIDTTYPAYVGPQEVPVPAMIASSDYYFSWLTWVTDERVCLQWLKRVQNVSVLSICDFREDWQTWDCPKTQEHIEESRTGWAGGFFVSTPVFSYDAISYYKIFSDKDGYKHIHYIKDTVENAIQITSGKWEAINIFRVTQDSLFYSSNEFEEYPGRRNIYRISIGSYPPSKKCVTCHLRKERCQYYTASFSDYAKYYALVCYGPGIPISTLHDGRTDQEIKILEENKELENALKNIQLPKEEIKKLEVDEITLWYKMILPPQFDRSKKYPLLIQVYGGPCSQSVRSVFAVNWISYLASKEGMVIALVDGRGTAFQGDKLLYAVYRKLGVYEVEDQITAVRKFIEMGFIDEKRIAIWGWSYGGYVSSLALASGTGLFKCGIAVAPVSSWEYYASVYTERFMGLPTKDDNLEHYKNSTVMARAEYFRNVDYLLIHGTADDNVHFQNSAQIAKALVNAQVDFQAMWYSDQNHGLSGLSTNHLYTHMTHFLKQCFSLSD
The test can be described thus: FAP inhibition (Table 1). The class given is biochemical. As to conditions: N.I. = No Inhibition.

The target in the next test is T3, human DPP IV (Homo sapiens, UniProt P27487).
T3 construct: extracellular fragment of protease DPP IV (aa29-766); made in house; host or cells: baculovirus expression system Bac-to-Bac
T3 sequence (P27487 29-766): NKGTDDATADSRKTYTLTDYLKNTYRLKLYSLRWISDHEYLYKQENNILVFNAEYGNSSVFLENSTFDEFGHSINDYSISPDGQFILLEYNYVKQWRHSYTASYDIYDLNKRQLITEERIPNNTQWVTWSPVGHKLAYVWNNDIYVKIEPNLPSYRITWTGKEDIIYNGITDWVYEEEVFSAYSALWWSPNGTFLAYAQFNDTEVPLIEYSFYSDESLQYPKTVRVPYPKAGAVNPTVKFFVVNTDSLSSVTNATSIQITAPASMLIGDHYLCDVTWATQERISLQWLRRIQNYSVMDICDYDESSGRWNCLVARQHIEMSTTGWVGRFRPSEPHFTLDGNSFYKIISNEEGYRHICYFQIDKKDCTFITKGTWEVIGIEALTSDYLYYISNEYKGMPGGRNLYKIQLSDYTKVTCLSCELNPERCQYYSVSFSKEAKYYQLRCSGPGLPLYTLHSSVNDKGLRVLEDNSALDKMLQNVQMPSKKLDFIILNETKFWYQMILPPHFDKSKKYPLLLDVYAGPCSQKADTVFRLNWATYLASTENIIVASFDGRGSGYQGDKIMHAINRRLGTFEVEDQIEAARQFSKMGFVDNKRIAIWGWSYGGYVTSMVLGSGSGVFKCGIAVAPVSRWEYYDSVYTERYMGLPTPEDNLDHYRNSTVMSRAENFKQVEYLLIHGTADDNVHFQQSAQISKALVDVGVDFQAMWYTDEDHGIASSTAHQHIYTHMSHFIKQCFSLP
The test can be described thus: DPP IV activity screening (Ala-Pro-AMC fluorescence). The class given is biochemical. The method, boiled down:
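DPP IV activity is taken as the linear rate of fluorescence change at 460 nm. Samples are dissolved in DMSO and screened at a single concentration (e.g. 20 μg/mL). Dose-response data are fit to a variable-slope sigmoidal model with bottom and top fixed at 0 and 100.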

In test [1] the target is dipeptidyl peptidase 7 (DPP 7) (Homo sapiens, UniProt Q9UHL4). The test can be described thus: DPP 7 activity screening. Type of test: biochemical. As to conditions: N.I. = No Inhibition. An outline of the steps:
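Sample dissolved in DMSO, final DMSO kept at a level not affecting activity; tested at a single concentration from preliminary screening (e.g. 20 μg/mL). Dose-response data fitted to sigmoidal variable-slope model with bottom and top fixed at 0 and 100.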

The next test deals with T4, human DPP 8 (Homo sapiens, UniProt Q6V1X1).
T4 construct: made in house; host or cells: insect cells, baculovirus Bac-to-Bac
T4 sequence (Q6V1X1 whole entry): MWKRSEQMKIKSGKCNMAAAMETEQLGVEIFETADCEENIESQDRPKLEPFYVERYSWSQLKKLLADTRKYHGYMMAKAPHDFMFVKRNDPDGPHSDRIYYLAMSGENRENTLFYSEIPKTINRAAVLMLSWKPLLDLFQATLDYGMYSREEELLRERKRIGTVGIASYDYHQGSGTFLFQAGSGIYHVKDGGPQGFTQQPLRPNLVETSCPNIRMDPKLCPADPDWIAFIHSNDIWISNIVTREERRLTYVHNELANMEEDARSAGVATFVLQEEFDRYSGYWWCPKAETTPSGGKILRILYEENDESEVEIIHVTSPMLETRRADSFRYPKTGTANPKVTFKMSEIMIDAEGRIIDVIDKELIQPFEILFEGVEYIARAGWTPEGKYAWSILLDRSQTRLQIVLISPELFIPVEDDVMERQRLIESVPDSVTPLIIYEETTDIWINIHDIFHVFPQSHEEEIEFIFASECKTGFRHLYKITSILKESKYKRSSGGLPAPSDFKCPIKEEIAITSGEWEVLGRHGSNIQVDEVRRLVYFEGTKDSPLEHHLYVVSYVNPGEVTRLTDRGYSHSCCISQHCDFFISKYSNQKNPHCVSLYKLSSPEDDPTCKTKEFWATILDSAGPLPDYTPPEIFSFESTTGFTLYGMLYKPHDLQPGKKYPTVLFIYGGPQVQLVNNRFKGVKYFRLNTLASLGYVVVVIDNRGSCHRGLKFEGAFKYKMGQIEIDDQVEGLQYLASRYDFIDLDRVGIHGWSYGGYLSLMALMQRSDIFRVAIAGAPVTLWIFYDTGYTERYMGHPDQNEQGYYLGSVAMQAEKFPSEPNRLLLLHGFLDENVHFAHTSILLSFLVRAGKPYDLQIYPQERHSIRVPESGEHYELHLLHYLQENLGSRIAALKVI
The test can be described thus: DPP 8 activity screening (Ala-Pro-AMC fluorescence). Type of test: biochemical. The settings on record: N.I. = No Inhibition. An outline of the steps:
(§1)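 Insect-cell baculovirus-expressed human enzymes hydrolyse Ala-Pro-AMC; AMC release monitored kinetically as fluorescence rate (ex 355/em 460 nm). Primary screen at a single concentration (e.g. 20 μg/mL); dose–response fitted to variable-slope sigmoid with bottom/top fixed at 0 and 100.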

The target in another test is T5, Human DPP 9 (Homo sapiens, UniProt Q86TI2).
T5 construct: made in house; host or cells: insect cells, baculovirus Bac-to-Bac
T5 sequence (Q86TI2 whole entry): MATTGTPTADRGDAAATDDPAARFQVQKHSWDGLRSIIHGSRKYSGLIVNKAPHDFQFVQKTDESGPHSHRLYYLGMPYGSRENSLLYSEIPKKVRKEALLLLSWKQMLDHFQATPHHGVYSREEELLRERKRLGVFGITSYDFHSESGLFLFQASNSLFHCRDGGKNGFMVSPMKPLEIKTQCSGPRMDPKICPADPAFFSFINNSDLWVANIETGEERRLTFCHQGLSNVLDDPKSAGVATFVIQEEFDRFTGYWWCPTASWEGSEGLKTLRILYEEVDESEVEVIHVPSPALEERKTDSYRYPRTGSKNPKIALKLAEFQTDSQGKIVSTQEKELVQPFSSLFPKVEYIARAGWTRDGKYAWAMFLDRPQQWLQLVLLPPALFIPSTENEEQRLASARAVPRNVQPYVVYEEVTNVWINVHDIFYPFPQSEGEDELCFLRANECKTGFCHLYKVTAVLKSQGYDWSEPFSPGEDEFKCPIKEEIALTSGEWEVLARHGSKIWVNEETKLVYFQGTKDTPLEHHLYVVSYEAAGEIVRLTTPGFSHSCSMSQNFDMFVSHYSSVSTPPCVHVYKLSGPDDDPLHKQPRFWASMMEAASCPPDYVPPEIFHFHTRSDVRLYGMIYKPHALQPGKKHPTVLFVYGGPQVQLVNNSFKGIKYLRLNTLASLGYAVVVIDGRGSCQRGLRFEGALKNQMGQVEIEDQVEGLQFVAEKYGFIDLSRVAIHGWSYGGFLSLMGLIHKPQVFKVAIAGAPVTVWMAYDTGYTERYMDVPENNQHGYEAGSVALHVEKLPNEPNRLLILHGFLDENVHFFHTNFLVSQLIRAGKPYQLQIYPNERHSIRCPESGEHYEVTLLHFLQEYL
As to the kind of experiment: DPP 9 activity screening (Ala-Pro-AMC fluorescence). Type of test: biochemical. As to conditions: N.I. = No Inhibition. The method, boiled down: as §1

T1 sequence (P28843 37-760 limits assumed): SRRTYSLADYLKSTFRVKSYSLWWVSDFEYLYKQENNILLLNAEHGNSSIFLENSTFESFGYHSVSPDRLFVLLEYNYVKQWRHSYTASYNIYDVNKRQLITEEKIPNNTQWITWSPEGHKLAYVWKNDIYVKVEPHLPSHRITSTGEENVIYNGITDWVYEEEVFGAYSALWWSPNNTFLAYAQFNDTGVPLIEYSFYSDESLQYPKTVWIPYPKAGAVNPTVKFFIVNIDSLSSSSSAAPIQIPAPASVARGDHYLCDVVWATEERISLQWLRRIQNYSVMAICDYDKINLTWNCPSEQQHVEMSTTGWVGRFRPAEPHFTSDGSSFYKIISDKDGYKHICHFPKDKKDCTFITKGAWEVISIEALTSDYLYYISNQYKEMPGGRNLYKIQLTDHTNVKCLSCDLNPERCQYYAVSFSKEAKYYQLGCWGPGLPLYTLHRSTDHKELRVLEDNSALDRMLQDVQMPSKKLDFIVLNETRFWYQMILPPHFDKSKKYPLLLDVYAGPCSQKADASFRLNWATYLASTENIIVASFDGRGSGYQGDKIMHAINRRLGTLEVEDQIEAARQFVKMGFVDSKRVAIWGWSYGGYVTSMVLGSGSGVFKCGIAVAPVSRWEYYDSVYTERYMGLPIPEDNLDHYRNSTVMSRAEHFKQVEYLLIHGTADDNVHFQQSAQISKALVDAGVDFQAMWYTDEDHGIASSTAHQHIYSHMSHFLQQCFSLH

Take `CCOC(=O)CNC(=O)c1csc2c(=O)n(Cc3ccccc3C#N)c(N3CCC[C@@H](N)C3)nc12` [DC291010]: the “DPP IV activity of ICR mouse plasma after single dose (given as hypoglycemic ability in vivo)” value (“DPP IV activity of ICR mouse plasma” for short) at DPP IV was “comparable to that of Alogliptin (3 mg), and better than that of Vildagliptin (LAF237, 15 mg)”.
For `CCOC(=O)CCNC(=O)c1csc2c(=O)n(Cc3ccccc3C#N)c(N3CCC[C@@H](N)C3)nc12` [DC291041], the “DPP IV activity of ICR mouse plasma” value on DPP IV was “comparable to that of Alogliptin (3 mg), and better than that of Vildagliptin (LAF237, 15 mg)”.
In the case of `N#Cc1ccccc1Cn1c(N2CCC[C@@H](N)C2)nc2cc(CO)sc2c1=O` [DC291408], the “DPP IV activity of ICR mouse plasma” value on DPP IV is “comparable to that of Alogliptin (3 mg), and better than that of Vildagliptin (LAF237, 15 mg)”.
For the molecule `N#Cc1ccccc1Cn1c(N2CCC[C@@H](N)C2)nc2cc(C(=O)N3CCCCC3)sc2c1=O` [DC291422], the “DPP IV activity of ICR mouse plasma” value at DPP IV is “comparable to that of Alogliptin (3 mg), and better than that of Vildagliptin (LAF237, 15 mg)”.
On to `COCCNC(=O)c1csc2c(=O)n(Cc3ccccc3C#N)c(N3CCC[C@@H](N)C3)nc12` [Compound 74, (R)-2-(3-aminopiperidin-1-yl)-3-(2-cyanobenzyl)-N-(2-methoxyethyl)-4-oxo-3,4-dihydrothieno[3,2-d]pyrimidine-7-carboxamide], for which the half-maximal inhibitory concentration (IC50) against FAP was determined as 30.6 µM; on human DPP IV it was 10.6 nM; at human DPP 8 it was 18.4 µM; on Human DPP 9, 92.9 µM. Besides, the “DPP 7 IC50” value in test [1] is “N.I”.
As to `COC(=O)[C@H](Cc1ccc(O)cc1)NC(=O)c1csc2c(=O)n(Cc3ccccc3C#N)c(N3CCC[C@@H](N)C3)nc12` [Compound 62, (S)-methyl 2-(2-((R)-3-aminopiperidin-1-yl)-3-(2-cyanobenzyl)-4-oxo-3,4-dihydrothieno[3,2-d]pyrimidine-7-carboxamido)-3-(4-hydroxyphenyl)-propanoate], the IC50 on FAP stood at 37.4 µM; at human DPP IV it was 49.2 nM; against human DPP 8 it was 12.3 µM; against Human DPP 9, 54.8 µM. Moreover, the “DPP 7 IC50” value in test [1] was “N.I”.
On the same counts, the results for `CC(C)NC(=O)c1cc2nc(N3CCC[C@@H](N)C3)n(Cc3ccccc3C#N)c(=O)c2s1` [Compound 115, (R)-2-(3-aminopiperidin-1-yl)-3-(2-cyanobenzyl)-N-isopropyl-4-oxo-3,4-dihydrothieno[3,2-d]pyrimidine-6-carboxamide] are 146 µM, 14.5 nM, 181 µM, 167 µM and “N.I”.
On to `COCCCNC(=O)c1csc2c(=O)n(Cc3ccccc3C#N)c(N3CCC[C@@H](N)C3)nc12` [Compound 75, (R)-2-(3-aminopiperidin-1-yl)-3-(2-cyanobenzyl)-N-(3-methoxypropyl)-4-oxo-3,4-dihydrothieno[3,2-d]pyrimidine-7-carboxamide], for which the IC50 stood at 28.3 µM against FAP, 8.15 nM against human DPP IV, 23 µM against human DPP 8 and 91.7 µM at Human DPP 9. Besides, the “DPP 7 IC50” value in test [1] was “N.I”.
Take `N#Cc1ccccc1Cn1c(N2CCC[C@@H](N)C2)nc2cc(COCc3ccccc3)sc2c1=O` [Compound 94, (R)-2-((2-(3-aminopiperidin-1-yl)-6-((benzyloxy)methyl)-4-oxothieno-[3,2-d]pyrimidin-3(4H)-yl)methyl)-benzonitrile]: the IC50 on FAP stood at 96.8 µM; at human DPP IV, 10.4 nM; against human DPP 8, 34.2 µM; at Human DPP 9 it was 55 µM. The “DPP 7 IC50” value in test [1] is listed as “N.I”.
Regarding `CC(=O)OCc1csc2c(=O)n(Cc3ccccc3C#N)c(N3CCC[C@@H](N)C3)nc12` [Compound 56, (R)-(2-(3-aminopiperidin-1-yl)-3-(2-cyanobenzyl)-4-oxo-3,4-dihydrothieno-[3,2-d]pyrimidin-7-yl)methyl acetate], the “FAP IC50” value at FAP is listed as “N.I”. Besides, inhibition at human DPP IV was half-maximal at 11.3 nM (IC50). In addition, the “DPP 7 IC50” value in test [1] is recorded as “N.I”. Further, on human DPP 8, the “DPP 8 IC50” value is listed as “N.I”. In addition, the “DPP 9 IC50” value at Human DPP 9 is reported as “N.I”.
For `N#Cc1ccccc1Cn1c(N2CCC[C@@H](N)C2)nc2c(C(=O)NC3CCCCC3)csc2c1=O` [Compound 80, (R)-2-(3-aminopiperidin-1-yl)-3-(2-cyanobenzyl)-N-cyclohexyl-4-oxo-3,4-dihydrothieno[3,2-d]pyrimidine-7-carboxamide], the IC50 was 28.7 µM at FAP, 26 nM on human DPP IV, 25.7 µM against human DPP 8 and 115 µM against Human DPP 9. Also, the “DPP 7 IC50” value in test [1] was “N.I”.
In the case of `COC(=O)C1CCN(Cc2csc3c(=O)n(Cc4ccccc4C#N)c(N4CCC[C@@H](N)C4)nc23)CC1` [Compound 54, (R)-methyl 1-((2-(3-aminopiperidin-1-yl)-3-(2-cyanobenzyl)-4-oxo-3,4-dihydrothieno[3,2-d]pyrimidin-7-yl)-methyl)piperidine-4-carboxylate], the “FAP IC50” value on FAP was “N.I”. The concentration for half-maximal inhibition (IC50) against human DPP IV is 238 nM; in test [1], 39.2 µM. Further, the “DPP 8 IC50” value at human DPP 8 is listed as “N.I”. Besides, the “DPP 9 IC50” value on Human DPP 9 was “N.I”.
In the case of `N#Cc1ccccc1Cn1c(N2CCC[C@@H](N)C2)nc2cc(CO)sc2c1=O` [Compound 28, (R)-2-((2-(3-aminopiperidin-1-yl)-6-(hydroxymethyl)-4-oxothieno[3,2-d]-pyrimidin-3(4H)-yl)methyl)benzonitrile], the IC50 against FAP is 85.9 µM; on human DPP IV it was 10.2 nM; against human DPP 8, 27 µM; against Human DPP 9, 35.2 µM. Further, the “DPP 7 IC50” value in test [1] is given as “N.I”.
Turning to `Cc1ccc(CNC(=O)c2cc3nc(N4CCC[C@@H](N)C4)n(Cc4ccccc4C#N)c(=O)c3s2)cc1` [Compound 122, (R)-2-(3-aminopiperidin-1-yl)-3-(2-cyanobenzyl)-N-(4-methylbenzyl)-4-oxo-3,4-dihydrothieno[3,2-d]-pyrimidine-6-carboxamide], the “FAP IC50” value at FAP is “N.I”. The results for the half-inhibitory concentration (IC50) at human DPP IV and against Human DPP 9 were 26.3 nM and 53.1 µM, respectively. For the same molecule, the “DPP 7 IC50” value in test [1] was “N.I”. Also, the “DPP 8 IC50” value on human DPP 8 is “N.I”.
As for `CC(C)NC(=O)c1csc2c(=O)n(Cc3ccccc3C#N)c(N3CCC[C@@H](N)C3)nc12` [Compound 72, (R)-2-(3-aminopiperidin-1-yl)-3-(2-cyanobenzyl)-N-isopropyl-4-oxo-3,4-dihydrothieno[3,2-d]pyrimidine-7-carboxamide], the half-inhibitory concentration (IC50) against FAP stood at 39.4 µM; against human DPP IV, 15.1 nM; on human DPP 8 it was 30.1 µM; against Human DPP 9, 149 µM. Also, the “DPP 7 IC50” value in test [1] is “N.I”.
For `CS(=O)(=O)Nc1csc2c(=O)n(Cc3ccccc3C#N)c(N3CCC[C@@H](N)C3)nc12` [Compound 85, (R)-N-(2-(3-aminopiperidin-1-yl)-3-(2-cyanobenzyl)-4-oxo-3,4-dihydrothieno-[3,2-d]pyrimidin-7-yl) methanesulfonamide], the IC50 was 255 µM at FAP, 37.1 nM against human DPP IV and 339 µM against human DPP 8. Besides, the “DPP 7 IC50” value in test [1] was “N.I”. Also, the “DPP 9 IC50” value on Human DPP 9 is “N.I”.
With `COC(=O)[C@@H](NC(=O)c1csc2c(=O)n(Cc3ccccc3C#N)c(N3CCC[C@@H](N)C3)nc12)C(C)C` [Compound 59, (S)-methyl 2-(2-((R)-3-aminopiperidin-1-yl)-3-(2-cyanobenzyl)-4-oxo-3,4-dihydrothieno[3,2-d]pyrimidine-7-carboxamido)-3-methylbutanoate], the half-inhibitory concentration (IC50) at FAP was found to be 49.5 µM; on human DPP IV it was 26.6 nM; at human DPP 8, 35 µM; against Human DPP 9, 187 µM. Also, the “DPP 7 IC50” value in test [1] is “N.I”.

As a reminder, the IC50 is the point on the concentration scale where inhibition reaches its midpoint.
